Biological target: T1, MBP-HTT(1-89)Q46-His(6×) (“Exon1-Q46”) protein aggregates (Homo sapiens, UniProt P42858, INS38QQQQQQQQQQQQQQQQQQQQQQQQQ)
T1 construct: MBP-HTT(1-89)Q46-His(6×); His(6×) (C); made in house
Assay: Exon1-Q46 Radioligand Binding Assay
Conditions: displacement of 0.3 nM ligand [3H3-methyl]-5-((5-methoxypyridin-2-yl)methoxy)-2-(pyrazin-2-yl)benzo[d]oxazole from 1 μM aggregated Exon1-Q46 protein; 60 minutes at 37° C.; read-out: Classified Potency
Experimental: Exon1-Q46 Radioligand Binding Assay
For radioligand binding assays (RBA) MBP-HTT(1-89)Q46-His(6×) (“Exon1-Q46”) protein was generated based on a previous publication (Scherzinger et al. Cell, Vol. 90, 549-558, Aug. 8, 1997). For experiments, 30 pM MBP-Exon1-Q46 was incubated with 150 μg/mL thrombin in assay buffer (150 mM NaCl, 50 mM Tris pH 8.0) and 2 mM CaCl2 for 16 hours at 37° C. Aggregated Exon1-Q46 was pelleted by centrifugation for 5 minutes at 13,000 rpm in a bench top centrifuge and re-dissolved in the same volume of assay buffer. Test compounds were prepared by titration in DMSO at 11 concentrations from 63 μM to 2 nM. For the RBA, Q46 protein aggregates and test compounds were pre-incubated in assay buffer for 20 minutes at room temperature, in 100 μL/well in a 96-well plate (pp, round bottom). Then, ligand was added in 50 μL/well and incubated for 60 minutes at 37° C. Final assay concentrations were 1 μM to 30 pM test compound, 1 μM Exon1-Q46 protein (equivalent monomer concentration) and 0.3 nM ligand [^3H3-methyl]-5-((5-methoxypyridin-2-yl)methoxy)-2-(pyrazin-2-yl)benzo[d]oxazole. Samples were transferred onto GF/B filter plates and washed 2× with 200 μL PBS using a Filtermate Harvester. After drying filter plates for 1 hour at 55° C., the back of the plates were sealed with foil and 30 μL/well scintillation fluid (Packard MicroScint 40) added, incubated for 15 minutes in the dark and counted in a MicroBeta reader. For analysis, replicate data from independent assay plates were normalized towards 0% and 100% inhibition using control wells of vehicle (0% inhibition) and 1 μM unlabeled [^3H3-methyl]-5-((5-methoxypyridin-2-yl)methoxy)-2-(pyrazin-2-yl)benzo[d]oxazole (100% inhibition). IC50 values were determined with a sigmoidal inhibition model with four variables (top, bottom, slope, IC50) in a global fit using the normalized replicate data.
The results for various example compounds were as provided in the table below (+++<100 nM; ++100-500; +500-10000; ND: not determined): […]

T1 sequence (P42858 with tags, fused parts or gaps with the stated changes limits assumed): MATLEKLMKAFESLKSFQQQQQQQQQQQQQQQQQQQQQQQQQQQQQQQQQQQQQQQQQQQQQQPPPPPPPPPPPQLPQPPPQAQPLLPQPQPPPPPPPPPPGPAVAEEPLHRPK

Row | Compound | IC50 [nM]
1 | N#Cc1cc(F)cc(-c2cc(C(=O)Nc3ccc(=O)[nH]n3)ncn2)c1 [Example 27] | < 100
2 | COc1cc(-c2cc(C(=O)NCc3ncccc3OC)ncn2)ccc1F [Example 15] | < 100
3 | Cn1c(CNC(=O)c2cc(-c3cc(F)cc(C#N)c3)ncn2)nccc1=O [Example 32] | < 100
4 | Cn1cc(NC(=O)c2cc(-c3cc(F)cc(Cl)c3)ncn2)cnc1=O [Example 35, 6-(3-Chloro-5-fluorophenyl)-N-(1-methyl-2-oxo-1,2-dihydropyrimidin-5-yl)pyrimidine-4-carboxamide] | < 100
5 | Cn1nc(NC(=O)c2cc(-c3cc(F)cc(C#N)c3)ncn2)ccc1=O [Example 20] | < 100
6 | COc1cc(-c2cc(C(=O)Nc3cncc(Cl)c3OC)ncn2)ccn1 [Example 6] | < 100
7 | COc1ccc(-c2cc(C(=O)Nc3ccc(=O)n(C)n3)ncn2)cc1Cl [Example 8, 6-(3-Chloro-4-methoxyphenyl)-N-(1-methyl-6-oxo-1,6-dihydropyridazin-3-yl)pyrimidine-4-carboxamide] | < 100
8 | COc1cc(F)cc(-c2cc(C(=O)Nc3ccc(=O)n(C)n3)ncn2)c1 [Example 21] | < 100
9 | Cn1cnc(NC(=O)c2cc(-c3cc(F)cc(Cl)c3)ncn2)cc1=O [Example 38] | < 100
10 | COc1cncc(NC(=O)c2cc(-c3cccc(Cl)c3)ncn2)c1 [Example 3] | < 100
11 | Cn1c(CNC(=O)c2cc(-c3cc(F)cc(Cl)c3)ncn2)nccc1=O [Example 31] | < 100
12 | Cn1nc(NC(=O)c2cc(-c3cc(F)cc(Cl)c3)ncn2)ccc1=O [Example 11] | < 100
13 | Cn1ncc(NC(=O)c2cc(-c3cc(F)cc(Cl)c3)ncn2)cc1=O [Example 39] | < 100
14 | COc1cc(-c2cc(C(=O)Nc3ccc(=O)n(C)n3)nc(-c3ccccc3)n2)ccn1 [Example 40, 6-(2-Methoxypyridin-4-yl)-N-(1-methyl-6-oxo-1,6-dihydropyridazin-3-yl)-2-phenylpyrimidine-4-carboxamide] | < 100
15 | COc1cc(-c2cc(C(=O)N3Cc4cccnc4C3)ncn2)ccn1 [Example 14] | < 100
16 | COc1cccc(-c2cc(C(=O)Nc3ccc(=O)n(C)n3)ncn2)c1 [Example 4, 6-(3-Methoxyphenyl)-N-(1-methyl-6-oxo-1,6-dihydropyridazin-3-yl)pyrimidine-4-carboxamide] | < 100
17 | COc1cc(-c2cc(C(=O)Nc3ccc(=O)n(C)n3)ncn2)ccc1F [Example 10] | < 100
18 | COc1ccc(-c2cc(C(=O)NCc3nccc(=O)n3C)ncn2)cc1Cl [Example 30] | < 100
19 | COc1cc(-c2cc(C(=O)Nc3ccc(=O)n(C)n3)ncn2)ccc1Cl [Example 9] | < 100
20 | COc1cc(C#N)cc(-c2cc(C(=O)Nc3ccc(=O)n(C)n3)ncn2)c1 [Example 19] | < 100

Row | Compound | IC50 [nM]
21 | COc1ccc(-c2cc(C(=O)Nc3cc(=O)n(C)cn3)ncn2)cc1Cl [Example 37] | < 100
22 | COc1ccnc(CNC(=O)c2cc(-c3ccc(F)c(OC)c3)ncn2)n1 [Example 16] | < 100
23 | Cn1nc(NC(=O)c2cc(-c3ccc(F)c(Cl)c3)ncn2)ccc1=O [Example 12] | < 100
24 | COc1cc(-c2cc(C(=O)Nc3cncc(OC)c3C)ncn2)ccn1 [Example 5] | < 100
25 | O=C(Nc1ccccc1)c1cc(-c2cccc(Cl)c2)ncn1 [Example 1, 6-(3-Chlorophenyl)-N-phenylpyrimidine-4-carboxamide] | < 100
26 | COc1cncc(NC(=O)c2cc(-c3ccnc(OC)c3)ncn2)c1 [Example 7] | < 100
27 | COc1ccc(-c2cc(C(=O)Nc3nccn(C)c3=O)ncn2)cc1Cl [Example 18] | < 100
28 | COc1cc(-c2cc(C(=O)NCc3nccc(=O)n3C)ncn2)ccc1F [Example 29, 6-(4-Fluoro-3-methoxyphenyl)-N-((1-methyl-6-oxo-1,6-dihydropyrimidin-2-yl)methyl)pyrimidine-4-carboxamide] | < 100
29 | Cc1cc(Cl)cc(-c2cc(C(=O)Nc3ccc(=O)n(C)n3)ncn2)c1 [Example 22] | < 100
30 | Cn1nc(NC(=O)c2cc(-c3cc(F)nc(Cl)c3)ncn2)ccc1=O [Example 23] | < 100
31 | COc1ncc(-c2cc(C(=O)NCc3nccc(=O)n3C)ncn2)cc1Cl [Example 33, 6-(5-Chloro-6-methoxypyridin-3-yl)-N-((1-methyl-6-oxo-1,6-dihydropyrimidin-2-yl)methyl)pyrimidine-4-carboxamide] | < 100
32 | COc1ccc(-c2cc(C(=O)Nc3cnn(C)c(=O)c3)ncn2)cc1Cl [Example 36, 6-(3-Chloro-4-methoxyphenyl)-N-(1-methyl-6-oxo-1,6-dihydropyridazin-4-yl)pyrimidine-4-carboxamide] | < 100
33 | COc1cc(C#N)cc(-c2cc(C(=O)Nc3ccc(=O)[nH]n3)ncn2)c1 [Example 26] | < 100
34 | COc1ccc(CNC(=O)c2cc(-c3ccc(F)c(OC)c3)ncn2)nc1 [Example 13] | < 100
35 | COc1ncc(NC(=O)c2cc(-c3cc(F)cc(Cl)c3)ncn2)cn1 [Example 28] | < 100
36 | COc1ccnc(CNC(=O)c2cc(-c3cnc(OC)c(Cl)c3)ncn2)n1 [Example 34, 6-(5-chloro-6-methoxypyridin-3-yl)-N-((4-methoxypyrimidin-2-yl)methyl)pyrimidine-4-carboxamide] | < 100
37 | Cn1ccnc(NC(=O)c2cc(-c3cc(F)cc(Cl)c3)ncn2)c1=O [Example 24] | < 100
38 | O=C(c1cc(-c2cccc(Cl)c2)ncn1)N1CCc2ccccc21 [Example 2] | < 100
39 | COc1cnc(NC(=O)c2cc(-c3cc(F)cc(Cl)c3)ncn2)cn1 [Example 25] | < 100
40 | COc1ncc(-c2cc(C(=O)Nc3ccc(=O)n(C)n3)ncn2)cc1Cl [Example 17] | < 100

From patent publication US12036292B2, “Heterobiaryl compounds and imaging agents for imaging huntingtin protein” (CHDI Foundation, Inc., priority 2020, dated 2024)
